System: NF-κB
Assay: Western blot of NF-κB
Type: cell-based
Details: LPS stimulation
Protocol: Human polymorphonuclear leukocytes (PMNLs; 50 × 10^6), isolated from whole blood, were resuspended in 1 mL of cold PGC buffer. Briefly, neutrophils were pre-incubated for 15 min at 37 °C with test compounds (1 μM). […] The samples were subsequent centrifuged (1200g, 10 min) and the pellets were resuspended in 100 μL od SDS-PAGE loading buffer (2x) (Tris 1 M pH 8, EDTA 0.2 M, 10 % SDS, 10 % mercaptoethanol). Correct protein loading on the gels and transfer of proteins to the nitrocellulose membrane were confirmed by Ponceau staining. Membranes with transferred proteins were incubated overnight with primary antibodies in 1x Tris Buffered Saline (TBS) with 1 % Casein (Biorad- #1610782). Membranes were then washed and incubated with horseradish peroxidase-conjugated secondary antibodies for 1 h at room temperature. Blots were developed using enhanced chemiluminescence detection reagents ECL (Immobilion ECL Ultra Western HRP Substrate - Cat# WBULS0500 Millipore) and acquired using ChemiDoc Imaging System (BioRad). Antibody recognizing phosphorylated p38-MAPkinase, pERK, ERK, NfKB were from Cell Signalling Technology (Boston, MA) and used at 1:1000 dilution. Secondary antibodies were purchased from Biorad (170–6515; 170–6516) and used at 1:2000 diluition.

Compound: CCCC/C=C\CCCCCCCCCc1cccc(O)c1O [CI, (Z)-3-(pentadec-10′-enyl)-catechol]
- NF-κB expression (Western blot): most pronounced effect
